These results are taken from patent publication US8748614B2, “Substituted isoquinoline and isoquinolinone derivatives” (Sanofi, priority 2006, dated 2014).

Where a name gives a salt, the structure may show the parent alone.

T1 sequence (O75116 11-552): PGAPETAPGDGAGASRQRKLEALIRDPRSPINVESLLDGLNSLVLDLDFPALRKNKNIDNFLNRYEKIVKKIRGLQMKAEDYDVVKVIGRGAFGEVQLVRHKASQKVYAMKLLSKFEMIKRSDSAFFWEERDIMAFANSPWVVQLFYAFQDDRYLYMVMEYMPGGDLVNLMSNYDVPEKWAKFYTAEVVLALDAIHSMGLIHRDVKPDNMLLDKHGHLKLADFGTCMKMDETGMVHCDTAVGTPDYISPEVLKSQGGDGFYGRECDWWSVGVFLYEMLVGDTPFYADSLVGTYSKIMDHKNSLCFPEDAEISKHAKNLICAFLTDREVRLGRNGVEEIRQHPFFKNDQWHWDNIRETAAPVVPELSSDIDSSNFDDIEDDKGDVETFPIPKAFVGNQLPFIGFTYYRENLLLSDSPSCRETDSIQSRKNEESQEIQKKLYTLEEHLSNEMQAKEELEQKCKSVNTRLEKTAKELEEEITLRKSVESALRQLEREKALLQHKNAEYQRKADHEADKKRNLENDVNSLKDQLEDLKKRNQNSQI

The test has as its target T1, human recombinant ROCK II (Homo sapiens, UniProt O75116).
T1 construct: recombinant human ROCK-II residues 11-552; His6 (N); purchased Upstate Ltd., Dundee, UK
Description: Determination of Rho Kinase Inhibition (ROCK II, Caliper peptide phosphorylation assay). Format: biochemical. Particulars: 60 min incubation at 32° C., respective form (salt or free base) as obtained in the examples. The method, then:
Determination of Rho Kinase Inhibition
To measure Rho-kinase inhibition, IC50 values were determined according to the following protocol:
Active human recombinant ROCK II (N-terminal His6-tagged recombinant human ROCK-II residues 11-552) was purchased from Upstate Ltd., Dundee, UK. The peptide substrate, Fluorescein-AKRRRLSSLRA-COOH, was obtained from JPT Peptide Technologies, Berlin, Germany. Adenosine-5′-triphosphate (ATP), bovine serum albumine (BSA), dimethylsulphoxide (DMSO), 4-(2-Hydroxyethyl)piperazine-1-ethanesulfonic acid (Hepes), Brij-35 and dithiothreitol (DTT) were purchased from Sigma-Aldrich, Munich, Germany. Tris(hydroxymethyl)-aminomethane (Tris), magnesium chloride, NaOH, 1M HCl and EDTA were obtained from Merck Biosciences, Darmstadt, Germany. “Complete” protease inhibitor was from Roche Diagnostics, Mannheim, Germany.
Test compounds were diluted to the appropriate concentrations in buffer 1 (25 mM Tris-HCl, pH 7.4, 5 mM MgCl2, 2 mM DTT, 0.02% (w/v) BSA and 3% DMSO). The ROCK II enzyme was diluted to a concentration of 100 ng/ml in buffer 2 (25 mM Tris-HCl, pH 7.4, 5 mM MgCl2, 2 mM DTT and 0.02% (w/v) BSA). The peptide substrate and ATP were diluted to concentrations of 3 μM and 120 μM, respectively, in the buffer 2. Two μl of the compound solution were mixed with 2 μl of the diluted enzyme in a 384-well small volume microtiter plate (Greiner, Bio-One, Frickenhausen, Germany), and the kinase reaction was initiated by addition of 2 μl of the solution containing peptide substrate and ATP. After 60 min incubation at 32° C., the reaction was stopped by addition of 20 μl of a solution containing 100 mM Hepes-NaOH, pH 7.4, 0.015% (v/v) Brij-35, 45 mM EDTA and 0.227% chip coating reagent 1 (Caliper Lifescience Inc, Hopkinton, Mass.). Phosphorylation of the substrate peptide was then detected on a Caliper 3000 instrument essentially as described by Pommereau et al (J. Biomol. Screening 9(5), 409-416, 2004). Separation conditions were as follows: Pressure −1.3 psi, upstream voltage −1562 V, downstream voltage −500 V, sample sip time 200 ms. Positive controls (buffer 1 instead of compound) and negative controls (buffer 1 instead of compound and buffer 2 instead of ROCK II) were run in parallel on each plate. The following products/compounds were tested in said assay by using the respective form (salt or free base) obtained as in the examples described above and the following activities were measured.
In the case of `Clc1cc2cnccc2cc1SC1CCCNC1` (racemic) [Example 269, (Rac)-7-Chloro-6-(piperidin-3-ylsulfanyl)-isoquinoline hydrochloride], the half-maximal inhibitory concentration (IC50) is at most 1000 nM. Take `Brc1cc2cnccc2cc1SC1CCCNCC1` (racemic) [Example 271, (Rac)-6-(Azepan-4-ylsulfanyl)-7-bromo-isoquinoline hydrochloride]: the IC50 is at most 1000 nM. Regarding `CN(c1ccc2cnccc2c1)C1CCN(CCC(F)(F)F)CC1` [Example 99, Isoquinolin-6-yl-methyl-[1-(3,3,3-trifluoro-propyl)-piperidin-4-yl]-amine], the IC50 was 1000 to 10000 nM.

On to `c1cc2cc(N[C@@H]3CCCN(CC4CC4)C3)ccc2cn1` [Example 166, ((R)-1-Cyclopropylmethyl-piperidin-3-yl)-isoquinolin-6-yl-amine], for which the IC50 is 1000 to 10000 nM.

Turning to `c1cc2cc(N[C@@H]3CCCN(CC4CCCCC4)C3)ccc2cn1` [Example 169, ((R)-1-Cyclohexylmethyl-piperidin-3-yl)-isoquinolin-6-yl-amine], the 50% inhibitory concentration (IC50) is 1000 to 10000 nM. Regarding `CCCN1CCC[C@@H](Nc2ccc3c(=O)[nH]ccc3c2)C1` [Example 195, 6-((R)-1-Propyl-piperidin-3-ylamino)-2H-isoquinolin-1-one], the IC50 is 1000 to 10000 nM. Regarding `CCCCN1CCC[C@@H](Nc2ccc3c(=O)[nH]ccc3c2)C1` [Example 196, 6-((R)-1-Butyl-piperidin-3-ylamino)-2H-isoquinolin-1-one], the half-maximal inhibitory concentration (IC50) was at most 1000 nM. As to `CC(C)CCN1CCC[C@@H](Nc2ccc3c(=O)[nH]ccc3c2)C1` [Example 199, 6-[(R)-1-(3-Methyl-butyl)-piperidin-3-ylamino]-2H-isoquinolin-1-one], the IC50 is at most 1000 nM. Under `O=c1[nH]ccc2cc(N[C@@H]3CCCN(Cc4ccccc4)C3)ccc12` [Example 207, 6-((R)-1-Benzyl-piperidin-3-ylamino)-2H-isoquinolin-1-one] stands at most 1000 nM; under `O=c1[nH]ccc2cc(N[C@@H]3CCCN(Cc4ccncc4)C3)ccc12` [Example 213, 6-((R)-1-Pyridin-4-ylmethyl-piperidin-3-ylamino)-2H-isoquinolin-1-one], 1000 to 10000 nM; under `O=c1[nH]ccc2cc(N[C@@H]3CCCN(Cc4ccccn4)C3)ccc12` [Example 215, 6-((R)-1-Pyridin-2-ylmethyl-piperidin-3-ylamino)-2H-isoquinolin-1-one], 1000 to 10000 nM.

Take `O=c1[nH]ccc2cc(N[C@@H]3CCCN(Cc4ccc5ccccc5c4)C3)ccc12` [Example 218, 6-((R)-1-Naphthalen-2-ylmethyl-piperidin-3-ylamino)-2H-isoquinolin-1-one]: the IC50 is at most 1000 nM. Consider `O=c1[nH]ccc2cc(N[C@H]3CCN(Cc4cccc(Cl)c4F)C3)ccc12` [Example 220, 6-[(S)-1-(3-Chloro-2-fluoro-benzyl)-pyrrolidin-3-ylamino]-2H-isoquinolin-1-one], for which the IC50 is at most 1000 nM.

With `O=c1[nH]ccc2cc(N[C@H]3CCN(CC4CC4)C3)ccc12` [Example 226, 6-((S)-1-Cyclopropylmethyl-pyrrolidin-3-ylamino)-2H-isoquinolin-1-one], the IC50 is at most 1000 nM. `O=c1[nH]ccc2cc(N[C@H]3CCN(Cc4cc(Cl)cc(Cl)c4)C3)ccc12` [Example 234, 6-[(S)-1-(3,5-Dichloro-benzyl)-pyrrolidin-3-ylamino]-2H-isoquinolin-1-one]: the IC50 is 1000 to 10000 nM.

As to `Cc1ccc(CN2CC[C@H](Nc3ccc4c(=O)[nH]ccc4c3)C2)cc1` [Example 236, 6-[(S)-1-(4-Methyl-benzyl)-pyrrolidin-3-ylamino]-2H-isoquinolin-1-one], the half-maximal inhibitory concentration (IC50) was at most 1000 nM. As for `O=c1[nH]ccc2cc(N[C@H]3CCN(Cc4ccc5ccccc5c4)C3)ccc12` [Example 243, 6-((S)-1-Naphthalen-2-ylmethyl-pyrrolidin-3-ylamino)-2H-isoquinolin-1-one], the half-inhibitory concentration (IC50) is at most 1000 nM. `Cn1cc(CN2CC[C@H](Nc3ccc4c(=O)[nH]ccc4c3)C2)cn1` [Example 246, 6-[(S)-1-(1-Methyl-1H-pyrazol-4-ylmethyl)-pyrrolidin-3-ylamino]-2H-isoquinolin-1-one]: the IC50 was 1000 to 10000 nM. For the molecule `O=c1[nH]ccc2cc(N[C@H]3CCN(CC4CCCNC4)C3)ccc12` (stereo partly drawn) [Example 248, 6-((S)-1-Piperidin-3-ylmethyl-pyrrolidin-3-ylamino)-2H-isoquinolin-1-one], the IC50 is 1000 to 10000 nM. Take `O=c1[nH]ccc2cc(NC3CN(Cc4cccc(Cl)c4F)C3)ccc12` [Example 249, 6-[1-(3-Chloro-2-fluoro-benzyl)-azetidin-3-ylamino]-2H-isoquinolin-1-one]: the IC50 was at most 1000 nM. Regarding `CC(C)N1CC(Nc2ccc3c(=O)[nH]ccc3c2)C1` [Example 251, 6-(1-Isopropyl-azetidin-3-ylamino)-2H-isoquinolin-1-one], the IC50 was 1000 to 10000 nM.

Regarding `O=c1[nH]ccc2cc(NC3CN(CC4CC4)C3)ccc12` [Example 253, 6-(1-Cyclopropylmethyl-azetidin-3-ylamino)-2H-isoquinolin-1-one], the IC50 was 1000 to 10000 nM. As for `O=c1[nH]ccc2cc(NC3CN(Cc4ccccc4Cl)C3)ccc12` [Example 259, 6-[1-(2-Chloro-benzyl)-azetidin-3-ylamino]-2H-isoquinolin-1-one], the figure is at most 1000 nM. As for `CCCc1cc2cnccc2cc1SC1CCNCC1` [Example 277, 6-(Piperidin-4-ylsulfanyl)-7-propyl-isoquinoline hydrochloride], the figure is at most 1000 nM. As for `Clc1cc2cnccc2cc1SCC1CCNCC1` [Example 279, 7-Chloro-6-(piperidin-4-ylmethylsulfanyl)-isoquinoline hydrochloride], the half-inhibitory concentration (IC50) is 1000 to 10000 nM. In the case of `O=c1[nH]ccc2cc(SC3CCNCC3)c(Cl)cc12` [Example 286, 7-Chloro-6-(piperidin-4-ylsulfanyl)-2H-isoquinolin-1-one hydrochloride], the 50% inhibitory concentration (IC50) was at most 1000 nM. Turning to `O=c1[nH]ccc2cc(S(=O)(=O)C3CCNCC3)c(Cl)cc12` [Example 288, 7-Chloro-6-(piperidine-4-sulfonyl)-2H-isoquinolin-1-one hydrochloride], the half-maximal inhibitory concentration (IC50) was at most 1000 nM. Turning to `O=c1[nH]ccc2cc([S+]([O-])C3CCNCC3)c(Cl)cc12` (stereo not shown) [Example 290, 7-Chloro-6-(piperidine-4-sulfinyl)-2H-isoquinolin-1-one hydrochloride], the half-inhibitory concentration (IC50) is 1000 to 10000 nM.
